# Results published in US20230339886A1 (University of Florida Research Foundation, Incorporated, priority 2020, published 2023).
# Target: T1, REV-ERBα LBD (human; residues 281-614 Δ324-422) (Homo sapiens, UniProt P20393, DEL324-422)
# T1 construct: 6×Histag-REV-ERBα LBD (human; residues 281-614 Δ324-422); made in house; host or cells: Escherichia coli
# Experiment: TR-FRET corepressor interaction assay (REV-ERBα LBD, FITC-SMRT peptide)
# Assay type: biochemical
# Conditions: FITC-SMRT peptide, read-out: REVERBα agonism (EC50 class, FRET assay)
# Summary of the method: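 Compound serial dilutions (in DMSO, triplicate) incubated 2 h at 4 °C; Tb donor excited at 340 nm, emission read at 495 nm and FITC acceptor at 520 nm. TR-FRET ratio (520/495 nm) plotted against ligand concentration and fitted to a sigmoidal dose-response curve.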
# T1 sequence (P20393 with tags, fused parts or gaps DEL324-422): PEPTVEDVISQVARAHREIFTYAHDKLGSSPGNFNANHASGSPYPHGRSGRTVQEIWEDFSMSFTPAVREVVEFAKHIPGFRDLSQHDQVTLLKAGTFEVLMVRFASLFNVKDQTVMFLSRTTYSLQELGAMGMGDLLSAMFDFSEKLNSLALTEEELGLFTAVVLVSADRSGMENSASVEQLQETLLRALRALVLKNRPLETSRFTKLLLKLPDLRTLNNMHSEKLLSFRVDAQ
# T1 sequence (Q9Y618 2335-2356 partner limits assumed): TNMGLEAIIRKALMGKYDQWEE
row,SMILES,EC50
1,"CC(C)(C)Cn1cc([C@H](NS(=O)(=O)C2CC2)C(F)(F)F)c2ccc(-c3c(Cl)cncc3Cl)cc21 [Example 470, (S)—N-(1-(6-(3,5-dichloropyridin-4-yl)-1-neopentyl-1H-indol-3-yl)-2,2,2-trifluoroethyl)cyclopropanesulfonamide]",< 500 nM
2,"CC(C)(C)Cn1cc([C@H](NS(=O)(=O)C2CC2)C(F)F)c2ccc(-c3ccc(F)cc3C(F)(F)F)cc21 [Example 551, (S)—N-(2,2-difluoro-1-(6-(4-fluoro-2-(trifluoromethyl)phenyl)-1-neopentyl-1H-indol-3-yl)ethyl)cyclopropanesulfonamide]",< 500 nM
3,"CC(C)(C)Cn1cc([C@H](NS(=O)(=O)C2CCC2)C(F)(F)F)c2cc(F)c(-c3cccnc3C#N)cc21 (racemic) [Example 529, (S)—N-(1-(6-(2-cyanopyridin-3-yl)-5-fluoro-1-neopentyl-1H-indol-3-yl)-2,2,2-trifluoroethyl)cyclobutanesulfonamide]",< 500 nM
4,"CC(C)(C)Cn1cc([C@H](NS(=O)(=O)C2CC2)C(F)F)c2ccc(-c3c(C#N)cccc3C(F)(F)F)cc21 [Example 545, (S)—N-(1-(6-(2-cyano-6-(trifluoromethyl)phenyl)-1-neopentyl-1H-indol-3-yl)-2,2-difluoroethyl)cyclopropanesulfonamide]",< 500 nM
5,"CC(C)(C)Cn1cc([C@H](NS(=O)(=O)C2CC2)C(F)F)c2ccc(-c3ccccc3C(F)(F)F)c(F)c21 [Example 553, (S)—N-(2,2-difluoro-1-(7-fluoro-1-neopentyl-6-(2-(trifluoromethyl)phenyl)-1H-indol-3-yl)ethyl)cyclopropanesulfonamide]",< 500 nM
6,"CC(C)(C)Cn1cc([C@H](NS(=O)(=O)C2CC2)C(F)(F)F)c2ccc(-c3cccc(C#N)c3F)cc21 [Example 473, (S)—N-(1-(6-(3-cyano-2-fluorophenyl)-1-neopentyl-1H-indol-3-yl)-2,2,2-trifluoroethyl)cyclopropanesulfonamide]",500 to 3000 nM
7,"CC(C)(C)Cc1cn(CCNS(=O)(=O)C2CC2)c2ccc(-c3ccc(C(F)(F)F)cc3C#N)cc12 [Example 487, N-(2-(5-(2-cyano-4-(trifluoromethyl)phenyl)-3-neopentyl-1H-indol-1-yl)ethyl)cyclopropanesulfonamide]",500 to 3000 nM
8,"[2H]C([2H])(n1cc([C@H](NS(=O)(=O)C2CCC2)C(F)(F)F)c2ccc(-c3ccccc3C(F)(F)F)cc21)C(C)(C)C [Example 517, (S)—N-(1-(1-(2,2-dimethylpropyl-1,1-d2)-6-(2-(trifluoromethyl)phenyl)-1H-indol-3-yl)-2,2,2-trifluoroethyl)cyclobutanesulfonamide]",< 500 nM
9,"CC(C)(C)Cn1cc([C@H](NS(=O)(=O)C2CCC2)C(F)F)c2cc(F)c(-c3ccccc3C(F)(F)F)cc21 [Example 435, (S)—N-(2,2-difluoro-1-(5-fluoro-1-neopentyl-6-(2-(trifluoromethyl)phenyl)-1H-indol-3-yl)ethyl)cyclobutanesulfonamide]",< 500 nM

# Same assay, conditions: Table 2, read-out: REVERBα agonism (EC50 class, FRET assay)
row,SMILES,EC50
1,"CC(C)Cc1cn(CCS(=O)(=O)C(C)(C)C)c2ccc(Br)cc12 [Example 174, 5-bromo-1-(2-(tert-butylsulfonyl)ethyl)-3-isobutyl-1H-indole]",500 to 3000 nM
2,"CC(C)(C)Cn1cc([C@H](NS(=O)(=O)C2CC2)C(F)(F)F)c2ccc(Br)c(F)c21 [Example 369, (S)—N-(1-(6-bromo-7-fluoro-1-neopentyl-1H-indol-3-yl)-2,2,2-trifluoroethyl)cyclopropanesulfonamide]",500 to 3000 nM
3,"CN(C)S(=O)(=O)NCCc1cn(Cc2ccncc2)c2cc(Br)ccc12 [Example 162, [(2-{6-bromo-1-[(pyridin-4-yl)methyl]-1H-indol-3-yl}ethyl)sulfamoyl]dimethylamine]",500 to 3000 nM
4,"CC(C)(C)Cc1cn(CCNS(=O)(=O)C2CC2)c2ccc(-c3cccc4ccncc34)cc12 [Example 217, N-(2-(5-(isoquinolin-8-yl)-3-neopentyl-1H-indol-1-yl)ethyl)cyclopropane-sulfonamide]",500 to 3000 nM
5,"CN(C)S(=O)(=O)NCCc1cn(Cc2cccc([N+](=O)[O-])c2)c2cc(-c3ccncc3)ccc12 [Example 148, N-{2-[6-(pyridin-4-yl)-1-(3-nitrobenzyl)-1H-indol-3-yl]ethyl}-N,N-dimethylsulfuric diamide]",500 to 3000 nM
6,"CN(C)S(=O)(=O)NCc1cn(C(=O)C(C)(C)C)c2cc(-c3ccncc3)ccc12 [Example 186, 1-(3-{[(dimethylsulfamoyl)amino]methyl}-6-(pyridin-4-yl)-1H-indol-1-yl)-2,2-dimethylpropan-1-one]",500 to 3000 nM
7,CC(C)C(=O)n1cc(CNS(=O)(=O)N(C)C)c2ccc(-c3ccccc3Cl)cc21 [Example 183],500 to 3000 nM
8,"CC(C)Cn1cc([C@H](NS(=O)(=O)C2CC2)C(F)(F)F)c2cc(F)c(C3CC3)cc21 [Example 315, (S)—N-(1-(6-cyclopropyl-5-fluoro-1-isobutyl-1H-indol-3-yl)-2,2,2-trifluoroethyl)cyclopropanesulfonamide]",< 500 nM
9,"CC(C)c1cc2c(cc1F)c([C@H](NS(=O)(=O)C1CC1)C(F)(F)F)cn2CC(C)(C)C [Example 336, (S)—N-(2,2,2-trifluoro-1-(5-fluoro-6-isopropyl-1-neopentyl-1H-indol-3-yl)ethyl)cyclopropanesulfonamide]",500 to 3000 nM
10,"CC(C)Cn1cc(-c2cnn(S(=O)(=O)C(C)C)c2)c2ccc(-c3ccccc3)cc21 [Example 63, 1-isobutyl-3-(1-(isopropylsulfonyl)-1H-pyrazol-4-yl)-6-phenyl-1H-indole]",> 3000 nM
11,CN(C)S(=O)(=O)NCCc1cn(CC2CC2)c2cc(-c3ccncc3)ccc12 [Compound 7],< 500 nM
12,"CC(C)Cn1cc(CCNS(=O)(=O)N(C)C)c2ccc(-c3cccc([N+](=O)[O-])c3)cc21 [Example 49, N-{2-[6-(3-nitrophenyl)-1-(2-methylpropyl)-1H-indol-3-yl]ethyl}-N,N-dimethylsulfuric diamide]",< 500 nM
13,"CC(C)Cc1cn(CCS(=O)(=O)C(C)C)c2ccc(Br)cc12 [Example 173, 5-bromo-3-isobutyl-1-(2-(isopropylsulfonyl)ethyl)-1H-indole]",500 to 3000 nM
14,"CC(C)(C)Cc1cn(CCNS(=O)(=O)C2CC2)c2ccc(-c3ccccn3)cc12 [Example 304, N-(2-(3-neopentyl-5-(pyridin-2-yl)-1H-indol-1-yl)ethyl)cyclopropanesulfonamide]",500 to 3000 nM
15,"CC(C)Cn1cc([C@H](NS(=O)(=O)C2CC2)C(F)(F)F)c2ccc(Cl)cc21 [Example 341, (S)—N-(1-(6-chloro-1-isobutyl-1H-indol-3-yl)-2,2,2-trifluoroethyl)cyclopropanesulfonamide]",< 500 nM
16,CC(C)Cn1cc(C(NS(=O)(=O)C2CC2)C(F)(F)F)c2ccc(-c3ccccc3C(F)(F)F)cc21 (centres unmarked) [Example 208],< 500 nM
17,"CN(C)S(=O)(=O)NCCc1cn(CC(F)(F)F)c2cc(Br)ccc12 [Example 158, ({2-[6-bromo-1-(2,2,2-trifluoroethyl)-1H-indol-3-yl]ethyl}sulfamoyl)dimethylamine]",500 to 3000 nM
18,"CC(C)Cn1cc(CCNS(=O)(=O)N(C)C)c2ccc(OCc3ccccc3)cc21 [Example 115, N′-{2-[6-benzyloxy-1-(2-methylpropyl)-1H-indol-3-yl]ethyl}-N,N-dimethylsulfuric diamide]",500 to 3000 nM
19,"CN(C)S(=O)(=O)N(C)CCc1cn(C)c2cc(-c3ccncc3)ccc12 [Example 127, N′-{2-[6-(pyridin-4-yl)-1-methyl-1H-indol-3-yl]ethyl}-N′-methyl-N,N-dimethylsulfuric diamide]",500 to 3000 nM
20,"CC(C)Cn1cc(CCNS(=O)(=O)N(C)C)c2ccc(-c3ccccc3F)cc21 [Example 56, N-{2-[6-(2-fluorophenyl)-1-(2-methylpropyl)-1H-indol-3-yl]ethyl}-N,N-dimethylsulfuric diamide]",500 to 3000 nM
21,"CC(C)Cn1cc([C@H](NS(=O)(=O)N(C)C)C(F)(F)F)c2cc(F)c(-c3ccccc3C(F)(F)F)cc21 [Example 320, dimethyl({[(1S)-2,2,2-trifluoro-1-[5-fluoro-1-(2-methylpropyl)-6-[2-(trifluoromethyl)phenyl]-1H-indol-3-yl]ethyl]sulfamoyl})amine]",< 500 nM
22,O=S(=O)(NCCc1cn(CC2CCCC2)c2cc(-c3ccncc3Cl)ccc12)C1CC1 [Compound 281],< 500 nM
23,"CC(C)Cn1cc(CCNS(=O)(=O)N(C)C)c2ccc(N(C)C)cc21 [Example 113, N′-{2-[6-N,N-dimethylamino-1-(2-methylpropyl)-1H-indol-3-yl]ethyl}-N,N-dimethylsulfuric diamide]",500 to 3000 nM
24,"CC(C)(O)Cn1cc([C@H](NS(=O)(=O)C2CCC2)C(F)(F)F)c2ccc(-c3ccccc3C(F)(F)F)nc21 (racemic) [Example 412, N-[rac-(1S)-2,2,2-trifluoro-1-[1-(2-hydroxy-2-methyl-propyl)-6-[2-(trifluoromethyl)phenyl]pyrrolo[2,3-b]pyridin-3-yl]ethyl]cyclobutanesulfonamide]",500 to 3000 nM
25,"CC(C)(C)Cn1cc(CCNS(=O)(=O)C2CC2)c2ccc(-c3ccc(C(F)(F)F)cc3C#N)cc21 [Example 400, N-(2-(6-(2-cyano-4-(trifluoromethyl)phenyl)-1-neopentyl-1H-indol-3-yl)ethyl)cyclopropanesulfonamide]",< 500 nM
26,"CC(C)(C)Cn1cc([C@H](NS(=O)(=O)C2CC2)C(F)(F)F)c2ccc(-c3ccncc3C#N)cc21 [Example 384, (S)—N-(1-(6-(3-cyanopyridin-4-yl)-1-neopentyl-1H-indol-3-yl)-2,2,2-trifluoroethyl)cyclopropanesulfonamide]",< 500 nM
